Source: patent US5710149A, “Piperazine derivatives as 5-ht antagonists” (John Wyeth & Brother, Ltd., priority 1991, dated 1998)

Experiments:
5-HT1A receptor [1] = target: T1, 5-HT1A receptor (Rattus norvegicus, UniProt P19327); assay: 5-HT1A receptor binding activity in rat hippocampal membrane homogenate
T1 construct: rat hippocampal membrane homogenated; from tissue; host or cells: rat hippocampus, membrane homogenate
T1 sequence (P19327 1-422): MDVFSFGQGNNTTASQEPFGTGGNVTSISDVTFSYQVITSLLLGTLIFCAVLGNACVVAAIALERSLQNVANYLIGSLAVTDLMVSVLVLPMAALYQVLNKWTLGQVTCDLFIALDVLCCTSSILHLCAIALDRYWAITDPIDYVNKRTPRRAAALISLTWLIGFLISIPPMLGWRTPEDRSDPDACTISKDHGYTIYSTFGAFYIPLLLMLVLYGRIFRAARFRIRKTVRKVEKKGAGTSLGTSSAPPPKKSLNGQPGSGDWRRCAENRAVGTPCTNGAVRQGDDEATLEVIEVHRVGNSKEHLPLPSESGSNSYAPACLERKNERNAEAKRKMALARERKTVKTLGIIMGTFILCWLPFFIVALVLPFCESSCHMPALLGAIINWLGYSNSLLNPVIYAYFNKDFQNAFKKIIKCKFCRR
Method: The compounds of the invention are tested for 5-HT1A receptor binding activity in rat hippocampal membrane homogenated by the method of B. S. Alexander and M. D. Wood, J Pharm Pharmacol, 1988, 40, 888-891.

5-HT1A receptor [2] = target: T2, 5-HT1A receptor (Cavia porcellus, UniProt A0A286Y074); assay: 5-HT1A receptor antagonism: antagonism of 5-carboxamido-tryptamine in the guinea-pig ileum in vitro; settings: read-out: pA2, antagonism of 5-carboxamido-tryptamine (converted)
T2 construct: guinea-pig ileum in vitro; from tissue; host or cells: guinea-pig ileum, isolated tissue
T2 sequence (A0A286Y074 1-421): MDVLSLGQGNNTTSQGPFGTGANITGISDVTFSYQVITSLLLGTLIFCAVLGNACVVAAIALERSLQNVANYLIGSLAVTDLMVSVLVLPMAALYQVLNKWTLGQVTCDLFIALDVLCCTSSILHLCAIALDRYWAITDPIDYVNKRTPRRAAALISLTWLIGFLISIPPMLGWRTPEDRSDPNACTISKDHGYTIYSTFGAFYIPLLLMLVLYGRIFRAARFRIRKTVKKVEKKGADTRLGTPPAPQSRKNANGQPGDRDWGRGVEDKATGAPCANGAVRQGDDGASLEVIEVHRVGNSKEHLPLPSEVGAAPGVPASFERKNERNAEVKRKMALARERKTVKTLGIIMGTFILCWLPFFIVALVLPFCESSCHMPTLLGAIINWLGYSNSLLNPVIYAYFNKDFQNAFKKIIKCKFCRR
Method: The compounds are tested for 5-HT1A receptor antagonism activity in a test involving the antagonism of 5-carboxamido-tryptamine in the guinea-pig ileum in vitro (based upon the procedure of Fozard et al, Br. J. Pharmac., 1985, 86, 601P).

IC50 (5-HT1A receptor [1]): 0.6 nM
Kb (5-HT1A receptor [2]): 0.398 nM
SMILES: O=C(C(CCN1CCN(c2cccc3c2OCCO3)CC1)c1ccccc1)N1CCCCCC1 (centres unmarked) [Example 8, 2,3,4,5,6,7-Hexahydro-1-{4-[1-[4-(2,3-dihydro-1,4-benzodioxin-5-yl)piperazinyl]]-2-phenylbutyryl}-1H-azepine]
